Assay results taken from patent US20230242915A1, “SMALL INTERFERING DEOXYRIBONUCLEIC ACID (SIDNA) AGAINST METALLO-BETA LACTAMASE GENE” (priority 2021, published 2023).
{FAM} = 6-FAM fluorescein dye; {TAMRA} = TAMRA dye

How the values were obtained:
[1] = tested on: imipenem-resistant Pseudomonas aeruginosa; assay: chronic Pseudomonas aeruginosa lung infection model, lung histology; assay type: in vivo; conditions: infected mice, imipenem in combination with siDNA (with chitosan), 3 days of treatment; compared with FIG. 5A mouse
Protocol: In this example, the effect of an exemplary siDNA on an exemplary imipenem-resistant Pseudomonas aeruginosa was assessed in 40 mice with chronic Pseudomonas aeruginosa lung infection. For this purpose, a 1% w/v concentration of chitosan polymer was prepared, followed by preparing two different ratios of chitosan 1% w/v to an exemplary siDNA—in phosphate buffered saline (PBS)—including an exemplary 1:1 ration and an exemplary 0.5:1 ratio.
A chronic Pseudomonas aeruginosa lung infection model (using imipenem-resistant Pseudomonas aeruginosa) was established in 40 mice (25-30 g). Exemplary mice were randomly divided into three groups (each group comprising 10 mice) including: i) an exemplary control group that only received imipenem after acquiring chronic infection, ii) an exemplary first group that received imipenem in combination with an exemplary siDNA (ratio 0.5:1 of chitosan 1% w/v to an exemplary siDNA) after acquiring chronic infection, and iii) an exemplary second group that received imipenem in combination with an exemplary siDNA (ratio 1:1 of chitosan 1% w/v to an exemplary siDNA) after acquiring chronic infection. […] The level of tissue damage in an exemplary control group, first group, and second group was observed and analyzed by light microscopy. […]

[2] = tested on: Pseudomonas aeruginosa harboring blaIMP-1 gene; assay: imipenem MIC assay (broth dilution) on transformed Pseudomonas aeruginosa; assay type: cell-based
Protocol: In this example, the synthesized siDNA in “Example 1” (comprising exemplary sense and antisense strands set forth in SEQ ID NO: 1 and 2, respectively) was cloned into Pseudomonas aeruginosa bacteria harboring an exemplary blaIMP-1 gene (imipenem/meropenem resistance gene). To this end, first, competent Pseudomonas aeruginosa was prepared and stored at −70° C. to be used in further experiments. Competent cells may refer to microbial cells capable of taking up foreign nucleic acid molecules from their surroundings through a process known as transformation. In order to transfer/clone the prepared siDNA into the competent Pseudomonas aeruginosa bacteria, 100 μL of an exemplary siDNA (either being coated with chitosan polymer or being bare—i.e., being uncoated) with a concentration of about 1% w/v was added to 60 μL of the competent Pseudomonas aeruginosa culture in Lysogeny Broth (LB) medium, gently mixed, and kept at 0° C. for 45 min. Then, the mixture of an exemplary siDNA (either being bare or coated with chitosan polymer) with the culture of competent Pseudomonas aeruginosa was incubated at 37° C., for 20 sec, and immediately placed on ice. […]
On the other hand, to further confirm success of an exemplary siDNA in silencing an exemplary blaIMP-1 gene in Pseudomonas aeruginosa, minimum inhibitory concentration (MIC) of imipenem was determined in an exemplary transformed Pseudomonas aeruginosa. To this end, MICs of imipenem that may inhibit the growth of an exemplary transformed Pseudomonas aeruginosa (with an exemplary siDNA) was determined after 1-4 h, 2-18 h, and 3-36 h, by broth dilution method performed in a 96-well microtiter plate. […]
To conduct an exemplary MIC assay, bacterial culture grown to log phase was adjusted to about 5×10^5 (cells/mL) in Muller-Hinton broth. Then, the antimicrobial effect of imipenem on an exemplary transformed Pseudomonas aeruginosa and an exemplary untreated Pseudomonas aeruginosa was determined by measuring turbidity of bacterial growth in each well, using a microtiter plate reader. […]

blaIMP-1 gene = assay: blaIMP-1 mRNA level by real time RT-PCR in Pseudomonas aeruginosa transformed with siDNA; assay type: cell-based; conditions: for Fold change of blaIMP-1 mRNA: 2-ΔΔCt, untreated = about 1
Protocol: In this example, the synthesized siDNA in “Example 1” (comprising exemplary sense and antisense strands set forth in SEQ ID NO: 1 and 2, respectively) was cloned into Pseudomonas aeruginosa bacteria harboring an exemplary blaIMP-1 gene (imipenem/meropenem resistance gene). To this end, first, competent Pseudomonas aeruginosa was prepared and stored at −70° C. to be used in further experiments. Competent cells may refer to microbial cells capable of taking up foreign nucleic acid molecules from their surroundings through a process known as transformation. In order to transfer/clone the prepared siDNA into the competent Pseudomonas aeruginosa bacteria, 100 μL of an exemplary siDNA (either being coated with chitosan polymer or being bare—i.e., being uncoated) with a concentration of about 1% w/v was added to 60 μL of the competent Pseudomonas aeruginosa culture in Lysogeny Broth (LB) medium, gently mixed, and kept at 0° C. for 45 min. Then, the mixture of an exemplary siDNA (either being bare or coated with chitosan polymer) with the culture of competent Pseudomonas aeruginosa was incubated at 37° C., for 20 sec, and immediately placed on ice. Then, 800 μL of Super Optimal broth (SOC) medium was added to the mixture of an exemplary siDNA (either being bare or coated with chitosan polymer) with the culture of competent Pseudomonas aeruginosa and incubated at 37° C., in a shaker incubator, for 24-30 h.
In this example, the effect of an exemplary siDNA—which was cloned into Pseudomonas aeruginosa bacteria in “Example 2”—on the expression of an exemplary blaIMP-1 gene was evaluated. In other words, the level of blaIMP-1 mRNA (messenger RNA) was measured in the transformed Pseudomonas aeruginosa bacteria with an exemplary siDNA in “Example 2”. For this purpose, the total RNA of an exemplary transformed Pseudomonas aeruginosa and an exemplary untreated Pseudomonas aeruginosa (as negative control) was extracted using a commercial RNA extraction kit, followed by conducting a real time RT-PCR (reverse transcriptase polymerase chain reaction) to determine the level of blaIMP-1 mRNA. In this example, 2-ΔΔCt method was used to determine differences in normalized expression of an exemplary blaIMP-1 gene (at transcription level) induced by an exemplary siDNA. FIG. 2 illustrates RNA expression profile 200 in an exemplary transformed Pseudomonas aeruginosa with an exemplary siDNA (measured by real time RT-PCR), consistent with one or more exemplary embodiments of the present disclosure. As shown in RNA expression profile 200, Group A refers to an exemplary transformed Pseudomonas aeruginosa bacteria grown for 4 h in the presence of imipenem, Group B refers to an exemplary transformed Pseudomonas aeruginosa bacteria grown for 18 h in the presence of imipenem, and Group C refers to an exemplary transformed Pseudomonas aeruginosa bacteria grown for 36 h in the presence of imipenem. […] Fold change of an exemplary blaIMP-1 mRNA in untreated Pseudomonas aeruginosa, Group A, Group B, and Group C—shown in RNA expression profile 200—were about 1, 0.088, 0.020, and 0.27, respectively.

With “siDNA: Annealed duplex of sense strand SEQ ID NO: 1 and antisense strand SEQ ID NO: 2, each 5′ 6-FAM and 3′ TAMARA, targeting blaIMP-1 gene (sense GCCGACATCGCCTTCGGCGTTTATGATT; antisense AACGCGAGAAAGTATGAACCTAGCACTT; DNA, 5' {FAM}, 3' {TAMRA}, backbone and methylation of C not given here)” the “edema and tissue damage in lung tissue (hematoxylin and eosin histology)” value [1] was “significantly less edema and tissue damage”, the “MIC of imipenem in siDNA-transformed Pseudomonas aeruginosa” value (from here on “MIC of imipenem”) ([2]; Group A, 4 h, Muller-Hinton broth) was 2 µg/mL and the “MIC of imipenem” value ([2]; Group B, 18 h, Muller-Hinton broth) was 4 µg/mL. The “MIC of imipenem” value ([2]; Group C, 36 h, similar to untreated negative control) was 32 µg/mL, the “decrease of gene expression compared to untreated Pseudomonas aeruginosa” value (“decrease of gene expression” below) (blaIMP-1 gene; Group A, 4 h in the presence of imipenem) was 11.36 folds and the “Fold change of blaIMP-1 mRNA” value (blaIMP-1 gene; Group A: transformed bacteria grown 4 h in the presence of imipenem) was about 0.088. The “decrease of gene expression” value (blaIMP-1 gene; Group B, 18 h in the presence of imipenem) was 50 folds, the “Fold change of blaIMP-1 mRNA” value (blaIMP-1 gene; Group B: transformed bacteria grown 18 h in the presence of imipenem) was about 0.020 and the “decrease of gene expression” value (blaIMP-1 gene; Group C, 36 h in the presence of imipenem) was 3.7 folds. The “Fold change of blaIMP-1 mRNA” value (blaIMP-1 gene; Group C: transformed bacteria grown 36 h in the presence of imipenem) was about 0.27.
